Test system: Influenza type B (cell culture adapted strain B/Lee/40, ATCC VR-1535)
Assay: Influenza antiviral assay: inhibition of virus-induced cytopathic effects (CPE) in MDCK cells, XTT dye reduction
Type: cell-based
Conditions: Influenza B virus, MDCK, 96 h, strain B/Lee/40, MDCK cells, CPE inhibition at 4 days

`O=C1c2c(O)c(=O)ccn2N(C23c4ccccc4CC2Cc2c3ccc(F)c2F)CN1Cc1cccc(F)c1` (stereo not shown) [Compound A26, 1-(1,2-difluoro-9a,10-dihydroindeno[1,2-a]inden-4b(9H)-yl)-3-(3-fluorobenzyl)-5-hydroxy-2,3-dihydro-1H-pyrido[2,1-f][1,2,4]triazine-4,6-dione] and `O=C1c2c(O)c(=O)ccn2N(C23c4ccccc4CC2Cc2c3ccc(F)c2F)CN1CCc1cccc(F)c1` (stereo not shown) [Compound A27, 1-(1,2-difluoro-9a,10-dihydroindeno[1,2-a]inden-4b(9H)-yl)-3-(3-fluorophenethyl)-5-hydroxy-2,3-dihydro-1H-pyrido[2,1-f][1,2,4]triazine-4,6-dione] fall in the same range of EC50: 250 to 375 nM for the first, 250 to 375 nM for the second.

`O=C1c2c(O)c(=O)ccn2N(C23c4ccccc4CC2Cc2cc(F)c(F)cc23)CN1CCc1cccc(F)c1` (stereo not shown) [Compound A28, 1-(2,3-difluoro-9a,10-dihydroindeno[1,2-a]inden-4b(9H)-yl)-3-(3-fluorophenethyl)-5-hydroxy-2,3-dihydro-1H-pyrido[2,1-f][1,2,4]triazine-4,6-dione] and `O=C1c2c(O)c(=O)ccn2N(C23c4ccccc4CC2Cc2cc(F)c(F)cc23)CN1CCc1ccc(F)cc1` (stereo not shown) [Compound A29, 1-(2,3-difluoro-9a,10-dihydroindeno[1,2-a]inden-4b(9H)-yl)-3-(4-fluorophenethyl)-5-hydroxy-2,3-dihydro-1H-pyrido[2,1-f][1,2,4]triazine-4,6-dione] fall in the same range of EC50: 250 to 375 nM for the first, 250 to 375 nM for the second.

Compared with `CN1CN(C23C(=Cc4ccccc42)Cc2ccccc23)n2ccc(=O)c(O)c2C1=O` (stereo not shown) [Compound A30, 5-hydroxy-1-(indeno[1,2-a]inden-4b(9H)-yl)-3-methyl-2,3-dihydro-1H-pyrido[2,1-f][1,2,4]triazine-4,6-dione], `COC12Cc3ccccc3C1(N1CN(C)C(=O)c3c(O)c(=O)ccn31)c1ccccc1C2` (stereo not shown) [Compound A62] is lower in EC50: 375 to 500 nM for the first, under 125 nM for the second.

First: O=C1c2c(O)c(=O)ccn2N(C23c4ccccc4CC2Cc2ccccc23)CN1Cc1cccc(Cl)c1F (stereo not shown) [Compound A31, 3-(3-chloro-2-fluorobenzyl)-1-(9a,10-dihydroindeno[1,2-a]inden-4b(9H)-yl)-5-hydroxy-2,3-dihydro-1H-pyrido[2,1-f][1,2,4]triazine-4,6-dione]
Second: O=C1c2c(O)c(=O)ccn2N(C23c4ccccc4CC2Cc2c(F)cccc23)CN1CCc1ccccc1 (stereo not shown) [Compound A87]
The EC50 of the first is higher: 375 to 500 nM for the first, under 125 nM for the second. The second is the more potent here.

`CN1CN(C23c4ccccc4CC2Cc2c3ccc(F)c2Cl)n2ccc(=O)c(O)c2C1=O` (stereo not shown) [Compound A46, 1-(1-Chloro-2-fluoro-9a,10-dihydroindeno[1,2-a]inden-4b(9H)-yl)-5-hydroxy-3-methyl-2,3-dihydro-1H-pyrido[2,1-f][1,2,4]triazine-4,6-dione] and `Cc1c(F)ccc2c1CC1Cc3ccccc3C21N1CN(C)C(=O)c2c(O)c(=O)ccn21` (stereo not shown) [Compound A78] cannot be ordered by EC50: under 125 nM for the first, under 125 nM for the second.

`CCN1CN(C23c4ccccc4CC2Cc2c3ccc(F)c2Cl)n2ccc(=O)c(O)c2C1=O` (stereo not shown) [Compound A47] and `CCN1CN(C23c4ccccc4CC2Cc2c3ccc(F)c2C)n2ccc(=O)c(O)c2C1=O` (stereo not shown) [Compound A77] fall in the same range of EC50: 125 to 250 nM for the first, 125 to 250 nM for the second.

`CCOC12Cc3ccccc3C1(N1CN(CC)C(=O)c3c(O)c(=O)ccn31)c1ccccc1C2` (stereo not shown) [Compound A48, 1-(9a-Ethoxy-9a,10-dihydroindeno[1,2-a]inden-4b(9H)-yl)-3-ethyl-5-hydroxy-2,3-dihydro-1H-pyrido[2,1-f][1,2,4]triazine-4,6-dione] and `CCOC12Cc3ccccc3C1(N1CN(C)C(=O)c3c(O)c(=O)ccn31)c1ccccc1C2` (stereo not shown) [Compound A57] cannot be ordered by EC50: under 125 nM for the first, under 125 nM for the second.

`COCCN1CN(C23c4cccc(F)c4CC2Cc2c(F)cccc23)n2ccc(=O)c(O)c2C1=O` (stereo not shown) [Compound A49] and `O=C1c2c(O)c(=O)ccn2N(C23c4cccc(F)c4CC2Cc2c(F)cccc23)CN1CCF` (stereo not shown) [Compound A58] cannot be ordered by EC50: under 125 nM for the first, under 125 nM for the second.

`CC(C)N1CN(C23c4ccccc4CC2(C)Cc2ccccc23)n2ccc(=O)c(O)c2C1=O` (stereo not shown) [Compound A50, 5-hydroxy-3-isopropyl-1-(9a-methyl-9a,10-dihydroindeno[1,2-a]inden-4b(9H)-yl)-2,3-dihydro-1H-pyrido[2,1-f] [1,2,4] triazine-4,6-dione] and `CN1CN(C23c4ccccc4CC2(C(F)F)Cc2ccccc23)n2ccc(=O)c(O)c2C1=O` (stereo not shown) [Compound A63] cannot be ordered by EC50: under 125 nM for the first, under 125 nM for the second.

`CCN1CN(C23c4cccc(F)c4CC2(C)Cc2c(F)cccc23)n2ccc(=O)c(O)c2C1=O` (stereo not shown) [Compound A51] and `CN1CN(C23c4cccc(F)c4CC2(C)Cc2c(F)cccc23)n2ccc(=O)c(O)c2C1=O` (stereo not shown) [Compound A54] cannot be ordered by EC50: under 125 nM for the first, under 125 nM for the second.

`CCN1CN(C23c4ccccc4CC2Cc2ccc(F)cc23)n2ccc(=O)c(O)c2C1=O` (stereo not shown) [Compound A52] and `CN1CN(C23c4ccccc4CC2Cc2ccc(F)cc23)n2ccc(=O)c(O)c2C1=O` (stereo not shown) [Compound A53] cannot be ordered by EC50: under 125 nM for the first, under 125 nM for the second.

First: CCN1CN(C23c4ccccc4CC2Cc2c(Cl)cccc23)n2ccc(=O)c(O)c2C1=O (stereo not shown) [Compound A55]
Second: CCN1CN(C23c4ccccc4CC2Cc2c(C)cccc23)n2ccc(=O)c(O)c2C1=O (stereo not shown) [Compound A82]
The EC50 of the first is lower: under 125 nM for the first, 125 to 250 nM for the second.

`CCN1CN(C23c4ccccc4CC2(CC)Cc2c3ccc(F)c2F)n2ccc(=O)c(O)c2C1=O` (stereo not shown) [Compound A56] and `O=C1c2c(O)c(=O)ccn2N(C23c4ccccc4CC2Cc2c3ccc(F)c2F)CN1CCF` (stereo not shown) [Compound A74] cannot be ordered by EC50: under 125 nM for the first, under 125 nM for the second.

`CN1C(=O)c2c(O)c(=O)ccn2N(C23c4cccc(F)c4CC2Cc2c(F)cccc23)C1CO` (stereo not shown) [Compound A59] and `CC1N(C)C(=O)c2c(O)c(=O)ccn2N1C12c3cccc(F)c3CC1Cc1c(F)cccc12` (stereo not shown) [Compound A73] cannot be ordered by EC50: under 125 nM for the first, under 125 nM for the second.

`CC1N(C)C(=O)c2c(O)c(=O)ccn2N1C12c3ccccc3CC1Cc1c(F)cccc12` (stereo not shown) [Compound A60] and `CC1N(C)C(=O)c2c(O)c(=O)ccn2N1C12c3ccccc3CC1Cc1c2ccc(F)c1F` (stereo not shown) [Compound A64] cannot be ordered by EC50: under 125 nM for the first, under 125 nM for the second.

Compared with `O=C1c2c(O)c(=O)ccn2N(C23c4ccccc4CC2Cc2c3ccc(F)c2F)CN1C1CC1` (stereo not shown) [Compound A61], `O=C1c2c(O)c(=O)ccn2N(C23c4ccccc4CC2Cc2c3ccc(F)c2F)CN1C1CCC1` (stereo not shown) [Compound A92, 3-Cyclobutyl-1-(1,2-difluoro-9a,10-dihydroindeno[1,2-a]inden-4b(9H)-yl)-5-hydroxy-2,3-dihydro-1H-pyrido[2,1-f][1,2,4]triazine-4,6-dione] is higher in EC50: under 125 nM for the first, 250 to 375 nM for the second. The first is the more potent here.

Compared with `O=C1c2c(O)c(=O)ccn2N(C23c4ccccc4CC2Cc2c(F)cccc23)CN1C1CC1` (stereo not shown) [Compound A65], `O=C1c2c(O)c(=O)ccn2N(C23c4ccccc4CC2Cc2c(Cl)cccc23)CN1C1CC1` (stereo not shown) [Compound A93] is higher in EC50: under 125 nM for the first, 125 to 250 nM for the second. The first is the more potent here.

`CCN1CN(C23c4cccc(C)c4CC2Cc2c(F)cccc23)n2ccc(=O)c(O)c2C1=O` (stereo not shown) [Compound A66] and `Cc1cccc2c1CC1Cc3c(F)cccc3C21N1CN(C)C(=O)c2c(O)c(=O)ccn21` (stereo not shown) [Compound A67] cannot be ordered by EC50: under 125 nM for the first, under 125 nM for the second.

`O=C1c2c(O)c(=O)ccn2N(C23c4ccccc4CC2Cc2c(F)cccc23)CN1CCF` (stereo not shown) [Compound A68] and `O=C1c2c(O)c(=O)ccn2N(C23c4ccccc4CC2Cc2c(F)cccc23)CN1CCCF` (stereo not shown) [Compound A79] cannot be ordered by EC50: under 125 nM for the first, under 125 nM for the second.

`COCCN1CN(C23c4ccccc4CC2Cc2c(F)cccc23)n2ccc(=O)c(O)c2C1=O` (stereo not shown) [Compound A69] and `COCCN1CN(C23c4ccccc4CC2Cc2c3ccc(F)c2F)n2ccc(=O)c(O)c2C1=O` (stereo not shown) [Compound A70] cannot be ordered by EC50: under 125 nM for the first, under 125 nM for the second.

`O=C1c2c(O)c(=O)ccn2N(C23c4cccc(F)c4CC2Cc2c(F)cccc23)CN1CC(F)F` (stereo not shown) [Compound A71] and `O=C1c2c(O)c(=O)ccn2N(C23c4cccc(F)c4CC2Cc2c(F)cccc23)CN1CCCF` (stereo not shown) [Compound A72] cannot be ordered by EC50: under 125 nM for the first, under 125 nM for the second.

Compared with `O=C1c2c(O)c(=O)ccn2N(C23c4ccccc4CC2Cc2c(F)cccc23)CN1CC1CCOCC1` (stereo not shown) [Compound A75], `O=C1c2c(O)c(=O)ccn2N(C23c4cccc(F)c4CC2Cc2c(F)cccc23)CN1CC1CCOCC1` (stereo not shown) [Compound A81] is higher in EC50: under 125 nM for the first, 125 to 250 nM for the second.

`O=C1c2c(O)c(=O)ccn2N(C23c4cccc(F)c4CC2Cc2c(F)cccc23)CN1CC1CC1` (stereo not shown) [Compound A76] and `O=C1c2c(O)c(=O)ccn2N(C23c4cccc(F)c4CC2Cc2c(F)cccc23)CN1CCc1ccccc1` (stereo not shown) [Compound A86] cannot be ordered by EC50: under 125 nM for the first, under 125 nM for the second.

First: O=C1c2c(O)c(=O)ccn2N(C23c4ccccc4CC2Cc2c3ccc(F)c2F)CN1CCCF (stereo not shown) [Compound A80]
Second: O=C1c2c(O)c(=O)ccn2N(C23c4ccccc4CC2Cc2c3ccc(F)c2F)CN1CC(F)F (stereo not shown) [Compound A84]
The EC50 of the first is lower: under 125 nM for the first, 125 to 250 nM for the second.

First: O=C1c2c(O)c(=O)ccn2N(C23c4ccccc4CC2Cc2c(F)cccc23)CN1CC(F)F (stereo not shown) [Compound A83]
Second: Cc1ccc2c(c1F)CC1Cc3ccccc3C21N1CN(C)C(=O)c2c(O)c(=O)ccn21 (stereo not shown) [Compound A85]
The EC50 of the first is lower: under 125 nM for the first, 250 to 375 nM for the second. The first is the more potent here.

Compared with `CC(C)N1CN(C23c4cccc(F)c4CC2(C)Cc2c(F)cccc23)n2ccc(=O)c(O)c2C1=O` (stereo not shown) [Compound A89], `CC(CCN1CN(C23c4ccccc4CC2Cc2c3ccc(F)c2F)n2ccc(=O)c(O)c2C1=O)c1ccccc1` (stereo not shown) [Compound A91] is lower in EC50: 375 to 500 nM for the first, 125 to 250 nM for the second. The second is the more potent here.

Same assay, conditions: strain B/Lee/40, MDCK cells, CPE inhibition at 4 days

`CC(CCN1CN(C23c4ccccc4CC2Cc2ccccc23)n2ccc(=O)c(O)c2C1=O)c1ccccc1` (stereo not shown) [Compound A32, 1-(9a,10-dihydroindeno[1,2-a]inden-4b(9H)-yl)-5-hydroxy-3-(3-phenylbutyl)-2,3-dihydro-1H-pyrido[2,1-f][1,2,4]triazine-4,6-dione] and `CCN1CN(C23c4ccccc4CC2Cc2c3ccc(F)c2F)n2ccc(=O)c(O)c2C1=O` (stereo not shown) [Compound A45] cannot be ordered by EC50: under 125 nM for the first, under 125 nM for the second.

First: CC(CCN1CN(C23c4ccccc4CC2Cc2ccccc23)n2ccc(=O)c(O)c2C1=O)c1ccccc1 (stereo not shown) [Compound A33]
Second: CN1CN(C23c4ccccc4CC2Cc2c3ccc(F)c2Cl)n2ccc(=O)c(O)c2C1=O (stereo not shown) [Compound A90]
The EC50 of the first is higher: over 500 nM for the first, under 125 nM for the second. The second is the more potent here.

Work on `CCN1CN(C23c4cccc(F)c4CC2Cc2c(F)cccc23)n2ccc(=O)c(O)c2C1=O` (stereo not shown) [Compound A34] yielded an EC50 of over 500 nM.
Work on `CCN1CN(C23c4cccc(F)c4CC2Cc2c(F)cccc23)n2ccc(=O)c(O)c2C1=O` (stereo not shown) [Compound A43] yielded an EC50 of under 125 nM.

— patent US12037333B2, “Pyridopyrazine and pyridotriazine inhibitors of influenza virus replication” (priority 2018, dated 2024)
